Experiments:
[1] = molecular target: Non-receptor tyrosine-protein kinase TYK2 (Homo sapiens) (UniProt P29597); settings: Compound concentration 1000.0 nM
[2] = test system: Receptor-type tyrosine-protein kinase FLT3 (Homo sapiens), P36888 [R834Q]; settings: Compound concentration 1000.0 nM
[3] = test system: Mast/stem cell growth factor receptor Kit (Homo sapiens), P10721 [V559D]; settings: Compound concentration 1000.0 nM
[4] = molecular target: T1, Inhibitor of nuclear factor kappa-B kinase subunit beta (Homo sapiens) (UniProt O14920); settings: Compound concentration 1000.0 nM
T1 sequence (whole entry): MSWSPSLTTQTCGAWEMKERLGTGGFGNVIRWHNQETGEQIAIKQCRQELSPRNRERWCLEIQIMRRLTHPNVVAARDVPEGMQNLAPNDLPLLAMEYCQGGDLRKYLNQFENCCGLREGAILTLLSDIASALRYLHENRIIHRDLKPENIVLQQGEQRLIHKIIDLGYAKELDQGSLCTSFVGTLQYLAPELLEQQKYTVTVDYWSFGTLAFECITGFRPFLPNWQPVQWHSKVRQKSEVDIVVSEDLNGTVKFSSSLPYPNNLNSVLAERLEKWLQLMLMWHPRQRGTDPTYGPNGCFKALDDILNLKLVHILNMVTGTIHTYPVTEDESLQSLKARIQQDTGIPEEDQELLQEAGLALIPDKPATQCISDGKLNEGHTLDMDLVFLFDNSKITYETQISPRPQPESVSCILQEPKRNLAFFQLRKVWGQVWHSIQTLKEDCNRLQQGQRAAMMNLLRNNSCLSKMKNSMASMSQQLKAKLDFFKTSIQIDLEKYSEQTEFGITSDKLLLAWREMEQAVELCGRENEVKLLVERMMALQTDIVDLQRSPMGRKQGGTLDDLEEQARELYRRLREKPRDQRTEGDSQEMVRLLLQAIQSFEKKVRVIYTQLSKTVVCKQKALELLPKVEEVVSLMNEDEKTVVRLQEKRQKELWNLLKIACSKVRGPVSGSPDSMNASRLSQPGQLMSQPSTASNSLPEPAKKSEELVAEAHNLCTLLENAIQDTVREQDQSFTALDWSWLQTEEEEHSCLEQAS

[5] = molecular target: Mitogen-activated protein kinase kinase kinase 4 (Homo sapiens) (UniProt Q9Y6R4); settings: Compound concentration 1000.0 nM
Mitogen-activated protein kinase kinase kinase 4 (Homo sapiens), sequence (Q9Y6R4 whole entry): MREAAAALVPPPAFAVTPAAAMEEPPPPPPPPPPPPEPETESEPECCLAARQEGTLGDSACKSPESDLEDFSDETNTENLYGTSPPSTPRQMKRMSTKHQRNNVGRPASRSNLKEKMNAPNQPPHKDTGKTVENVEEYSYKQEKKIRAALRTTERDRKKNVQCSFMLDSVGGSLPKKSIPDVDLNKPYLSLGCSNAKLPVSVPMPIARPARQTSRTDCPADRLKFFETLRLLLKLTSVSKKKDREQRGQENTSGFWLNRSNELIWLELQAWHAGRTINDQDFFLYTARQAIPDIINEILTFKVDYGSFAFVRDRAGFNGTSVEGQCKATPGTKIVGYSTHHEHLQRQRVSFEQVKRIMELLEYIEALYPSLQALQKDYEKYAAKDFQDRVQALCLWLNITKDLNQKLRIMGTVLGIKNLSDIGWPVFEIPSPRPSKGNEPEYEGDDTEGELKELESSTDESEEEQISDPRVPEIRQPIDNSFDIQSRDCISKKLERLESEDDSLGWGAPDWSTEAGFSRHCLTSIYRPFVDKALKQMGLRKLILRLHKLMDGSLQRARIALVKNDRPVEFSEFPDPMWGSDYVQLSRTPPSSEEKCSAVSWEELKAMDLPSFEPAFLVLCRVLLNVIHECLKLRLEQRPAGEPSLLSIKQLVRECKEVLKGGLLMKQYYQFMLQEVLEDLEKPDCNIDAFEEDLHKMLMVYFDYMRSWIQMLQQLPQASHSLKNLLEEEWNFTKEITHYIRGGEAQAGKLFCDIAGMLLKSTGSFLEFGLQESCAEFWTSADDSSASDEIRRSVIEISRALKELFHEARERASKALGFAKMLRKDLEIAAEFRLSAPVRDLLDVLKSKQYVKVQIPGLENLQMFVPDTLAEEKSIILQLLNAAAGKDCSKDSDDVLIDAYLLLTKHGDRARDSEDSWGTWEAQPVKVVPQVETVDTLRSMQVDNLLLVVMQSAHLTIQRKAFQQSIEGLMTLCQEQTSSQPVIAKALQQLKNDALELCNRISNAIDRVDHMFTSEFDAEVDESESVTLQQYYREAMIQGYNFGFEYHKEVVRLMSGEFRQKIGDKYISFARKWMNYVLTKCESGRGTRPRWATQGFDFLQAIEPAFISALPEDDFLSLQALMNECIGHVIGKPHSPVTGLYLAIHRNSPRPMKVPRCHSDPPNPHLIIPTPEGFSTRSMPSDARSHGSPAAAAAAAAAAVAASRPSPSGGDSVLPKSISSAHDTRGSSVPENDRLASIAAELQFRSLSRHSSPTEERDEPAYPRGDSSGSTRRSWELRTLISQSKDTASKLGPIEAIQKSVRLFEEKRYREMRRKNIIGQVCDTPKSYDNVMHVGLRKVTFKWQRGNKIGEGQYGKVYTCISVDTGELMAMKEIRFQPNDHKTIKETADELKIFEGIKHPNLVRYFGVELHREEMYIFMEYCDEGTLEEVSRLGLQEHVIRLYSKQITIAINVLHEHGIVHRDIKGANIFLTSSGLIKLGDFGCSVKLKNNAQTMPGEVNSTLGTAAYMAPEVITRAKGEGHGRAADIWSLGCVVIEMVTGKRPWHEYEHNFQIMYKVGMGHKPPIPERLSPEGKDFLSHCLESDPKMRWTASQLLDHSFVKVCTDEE

[6] = molecular target: Alpha-2A adrenergic receptor (Homo sapiens) (UniProt P08913); settings: Compound concentration 10.0 uM
Alpha-2A adrenergic receptor (Homo sapiens), sequence (P08913 whole entry): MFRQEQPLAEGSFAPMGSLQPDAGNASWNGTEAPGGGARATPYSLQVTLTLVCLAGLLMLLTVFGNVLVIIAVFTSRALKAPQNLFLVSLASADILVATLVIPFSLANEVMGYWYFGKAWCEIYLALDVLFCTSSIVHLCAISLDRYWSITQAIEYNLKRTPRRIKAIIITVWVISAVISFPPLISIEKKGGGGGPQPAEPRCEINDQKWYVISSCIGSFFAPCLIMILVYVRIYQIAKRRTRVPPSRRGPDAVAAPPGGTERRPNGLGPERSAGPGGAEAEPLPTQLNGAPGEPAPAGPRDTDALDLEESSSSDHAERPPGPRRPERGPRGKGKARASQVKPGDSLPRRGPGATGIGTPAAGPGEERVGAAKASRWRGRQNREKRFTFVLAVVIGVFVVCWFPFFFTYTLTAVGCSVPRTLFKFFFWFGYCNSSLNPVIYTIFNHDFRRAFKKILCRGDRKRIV

[7] = molecular target: Myosin light chain kinase 2, skeletal/cardiac muscle (Homo sapiens) (UniProt Q9H1R3); settings: Compound concentration 1000.0 nM
[8] = molecular target: Myosin light chain kinase family member 4 (Homo sapiens) (UniProt Q86YV6); settings: Compound concentration 1000.0 nM
[9] = molecular target: Mitogen-activated protein kinase kinase kinase kinase 4 (Homo sapiens) (UniProt O95819); settings: Compound concentration 1000.0 nM
[10] = molecular target: T2, Calcium/calmodulin-dependent protein kinase type IV (Homo sapiens) (UniProt Q16566); settings: Compound concentration 1000.0 nM
T2 sequence (whole entry): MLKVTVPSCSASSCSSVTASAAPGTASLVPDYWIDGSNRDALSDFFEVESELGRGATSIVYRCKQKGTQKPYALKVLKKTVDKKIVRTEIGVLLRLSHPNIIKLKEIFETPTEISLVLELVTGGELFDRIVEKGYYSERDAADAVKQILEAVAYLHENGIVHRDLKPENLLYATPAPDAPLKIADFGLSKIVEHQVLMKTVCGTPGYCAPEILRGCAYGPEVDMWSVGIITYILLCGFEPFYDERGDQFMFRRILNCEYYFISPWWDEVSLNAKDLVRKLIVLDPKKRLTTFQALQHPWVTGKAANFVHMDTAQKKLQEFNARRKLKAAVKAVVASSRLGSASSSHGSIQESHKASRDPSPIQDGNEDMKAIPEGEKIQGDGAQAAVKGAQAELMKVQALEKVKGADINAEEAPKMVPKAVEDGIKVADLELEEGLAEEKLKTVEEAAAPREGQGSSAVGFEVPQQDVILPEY

[11] = test system: Phosphatidylinositol 4,5-bisphosphate 3-kinase catalytic subunit alpha isoform (Homo sapiens), P42336 [H1047Y]; settings: Compound concentration 1000.0 nM
Phosphatidylinositol 4,5-bisphosphate 3-kinase catalytic subunit alpha isoform (Homo sapiens), P42336 [H1047Y], sequence (P42336 whole entry H1047Y, canonical isoform): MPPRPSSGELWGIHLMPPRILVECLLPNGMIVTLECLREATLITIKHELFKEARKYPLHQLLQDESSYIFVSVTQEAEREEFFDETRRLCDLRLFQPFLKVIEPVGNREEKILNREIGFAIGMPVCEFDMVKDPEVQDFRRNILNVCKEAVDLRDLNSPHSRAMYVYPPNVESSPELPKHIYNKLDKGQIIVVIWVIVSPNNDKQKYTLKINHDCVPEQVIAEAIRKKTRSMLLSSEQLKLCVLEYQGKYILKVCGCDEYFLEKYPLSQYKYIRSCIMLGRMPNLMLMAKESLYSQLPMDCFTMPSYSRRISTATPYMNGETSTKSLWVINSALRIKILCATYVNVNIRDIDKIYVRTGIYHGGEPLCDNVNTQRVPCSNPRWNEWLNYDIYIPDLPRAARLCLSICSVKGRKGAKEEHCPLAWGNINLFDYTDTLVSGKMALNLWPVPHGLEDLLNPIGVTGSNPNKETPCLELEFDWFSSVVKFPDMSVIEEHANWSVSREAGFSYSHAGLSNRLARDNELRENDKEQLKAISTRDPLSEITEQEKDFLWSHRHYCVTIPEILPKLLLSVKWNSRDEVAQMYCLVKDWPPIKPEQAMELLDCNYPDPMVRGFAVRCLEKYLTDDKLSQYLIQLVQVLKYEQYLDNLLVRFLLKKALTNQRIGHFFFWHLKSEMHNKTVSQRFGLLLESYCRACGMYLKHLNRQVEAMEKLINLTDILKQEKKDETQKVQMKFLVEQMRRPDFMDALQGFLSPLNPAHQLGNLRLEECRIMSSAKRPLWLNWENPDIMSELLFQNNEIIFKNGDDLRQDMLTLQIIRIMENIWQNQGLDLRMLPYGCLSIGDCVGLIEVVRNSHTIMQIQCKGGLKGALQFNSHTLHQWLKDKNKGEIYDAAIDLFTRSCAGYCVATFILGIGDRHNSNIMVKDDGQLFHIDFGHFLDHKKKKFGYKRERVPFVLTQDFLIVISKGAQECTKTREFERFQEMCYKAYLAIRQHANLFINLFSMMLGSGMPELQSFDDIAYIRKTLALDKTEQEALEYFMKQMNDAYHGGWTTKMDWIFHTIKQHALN

[12] = molecular target: Serine/threonine-protein kinase SBK1 (Homo sapiens) (UniProt Q52WX2); settings: Compound concentration 1000.0 nM
[13] = molecular target: T3, cGMP-dependent protein kinase 1 (Homo sapiens) (UniProt Q13976); settings: Compound concentration 1000.0 nM
T3 sequence (whole entry): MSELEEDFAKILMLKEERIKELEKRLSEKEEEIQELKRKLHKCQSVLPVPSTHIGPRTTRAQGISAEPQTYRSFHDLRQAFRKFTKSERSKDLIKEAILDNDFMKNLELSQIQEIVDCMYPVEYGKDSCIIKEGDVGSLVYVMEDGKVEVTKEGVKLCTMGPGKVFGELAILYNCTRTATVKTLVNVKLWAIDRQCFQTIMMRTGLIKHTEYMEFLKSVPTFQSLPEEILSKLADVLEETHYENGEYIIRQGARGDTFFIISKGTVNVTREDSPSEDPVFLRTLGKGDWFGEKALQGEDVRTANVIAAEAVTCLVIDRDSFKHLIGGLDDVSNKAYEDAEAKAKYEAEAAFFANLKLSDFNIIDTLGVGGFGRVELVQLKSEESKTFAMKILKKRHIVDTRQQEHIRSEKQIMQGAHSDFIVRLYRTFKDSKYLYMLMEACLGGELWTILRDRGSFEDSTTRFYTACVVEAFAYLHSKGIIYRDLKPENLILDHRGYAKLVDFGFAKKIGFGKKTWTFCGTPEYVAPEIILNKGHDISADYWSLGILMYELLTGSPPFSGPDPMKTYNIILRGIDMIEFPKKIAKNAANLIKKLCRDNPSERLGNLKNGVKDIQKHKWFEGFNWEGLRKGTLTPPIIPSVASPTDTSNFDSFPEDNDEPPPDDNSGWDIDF

[14] = molecular target: Casein kinase II subunit alpha' (Homo sapiens) (UniProt P19784); settings: Compound concentration 1000.0 nM
Casein kinase II subunit alpha' (Homo sapiens), sequence (P19784 whole entry, looked up): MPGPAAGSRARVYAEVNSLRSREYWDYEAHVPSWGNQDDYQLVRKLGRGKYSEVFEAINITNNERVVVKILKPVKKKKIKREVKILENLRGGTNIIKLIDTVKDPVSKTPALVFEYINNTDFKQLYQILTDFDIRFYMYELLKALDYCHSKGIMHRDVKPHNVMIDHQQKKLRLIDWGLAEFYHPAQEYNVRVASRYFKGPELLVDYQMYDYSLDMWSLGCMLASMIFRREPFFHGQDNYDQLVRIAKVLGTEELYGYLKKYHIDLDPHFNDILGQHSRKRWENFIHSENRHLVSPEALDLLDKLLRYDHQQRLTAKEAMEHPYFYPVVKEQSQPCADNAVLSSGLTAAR

[15] = test system: Receptor-type tyrosine-protein kinase FLT3 (Homo sapiens), P36888 [UNDEFINED MUTATION]; settings: Compound concentration 1000.0 nM
[16] = molecular target: Rho-associated protein kinase 1 (Homo sapiens) (UniProt Q13464); settings: Compound concentration 1000.0 nM
[17] = molecular target: Serine/threonine-protein kinase TAO1 (Homo sapiens) (UniProt Q7L7X3); settings: Compound concentration 1000.0 nM
[18] = molecular target: Serine/threonine-protein kinase 32C (Homo sapiens) (UniProt Q86UX6); settings: Compound concentration 1000.0 nM
Serine/threonine-protein kinase 32C (Homo sapiens), sequence (Q86UX6 whole entry): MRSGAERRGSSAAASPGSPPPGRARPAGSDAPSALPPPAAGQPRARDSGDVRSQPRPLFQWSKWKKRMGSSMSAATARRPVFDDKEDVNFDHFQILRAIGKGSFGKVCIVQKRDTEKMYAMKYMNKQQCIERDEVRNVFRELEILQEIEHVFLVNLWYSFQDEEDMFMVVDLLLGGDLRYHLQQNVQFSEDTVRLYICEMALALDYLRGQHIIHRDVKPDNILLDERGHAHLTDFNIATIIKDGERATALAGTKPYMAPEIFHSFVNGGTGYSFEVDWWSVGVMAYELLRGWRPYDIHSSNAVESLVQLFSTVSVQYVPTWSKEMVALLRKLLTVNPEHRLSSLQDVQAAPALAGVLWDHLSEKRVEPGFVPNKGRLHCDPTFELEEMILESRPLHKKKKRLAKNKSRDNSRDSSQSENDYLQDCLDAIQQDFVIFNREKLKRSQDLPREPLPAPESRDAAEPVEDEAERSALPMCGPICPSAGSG

[19] = molecular target: 5-hydroxytryptamine receptor 2B (Homo sapiens) (UniProt P41595); settings: Compound concentration 10.0 uM

Mast/stem cell growth factor receptor Kit (Homo sapiens), P10721 [V559D], sequence (P10721 whole entry V559D): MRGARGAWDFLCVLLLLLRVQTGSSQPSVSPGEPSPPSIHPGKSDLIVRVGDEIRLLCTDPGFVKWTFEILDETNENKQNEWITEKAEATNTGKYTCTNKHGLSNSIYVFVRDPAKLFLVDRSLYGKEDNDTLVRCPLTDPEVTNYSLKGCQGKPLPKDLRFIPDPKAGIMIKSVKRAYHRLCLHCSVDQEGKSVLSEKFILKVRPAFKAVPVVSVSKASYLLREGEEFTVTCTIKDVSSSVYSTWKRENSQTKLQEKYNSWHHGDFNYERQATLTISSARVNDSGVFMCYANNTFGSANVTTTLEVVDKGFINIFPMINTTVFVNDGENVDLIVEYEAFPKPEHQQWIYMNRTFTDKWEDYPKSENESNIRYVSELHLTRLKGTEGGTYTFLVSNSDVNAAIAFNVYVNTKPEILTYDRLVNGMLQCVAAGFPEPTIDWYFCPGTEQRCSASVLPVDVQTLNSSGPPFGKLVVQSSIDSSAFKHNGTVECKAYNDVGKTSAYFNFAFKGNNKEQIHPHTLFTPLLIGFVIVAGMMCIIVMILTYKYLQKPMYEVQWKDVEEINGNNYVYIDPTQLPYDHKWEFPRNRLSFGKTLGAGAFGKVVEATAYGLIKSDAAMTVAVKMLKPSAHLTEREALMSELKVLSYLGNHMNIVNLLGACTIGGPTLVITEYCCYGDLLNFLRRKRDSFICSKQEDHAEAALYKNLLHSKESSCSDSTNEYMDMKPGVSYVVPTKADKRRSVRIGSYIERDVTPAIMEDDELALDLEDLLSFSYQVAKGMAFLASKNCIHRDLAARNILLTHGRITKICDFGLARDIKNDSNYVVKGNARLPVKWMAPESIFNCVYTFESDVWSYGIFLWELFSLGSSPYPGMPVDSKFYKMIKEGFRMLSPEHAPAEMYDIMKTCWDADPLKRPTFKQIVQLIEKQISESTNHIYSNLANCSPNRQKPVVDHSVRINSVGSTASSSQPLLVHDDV

| Compound | residual activity [1] [%] | residual activity [2] [%] | residual activity [3] [%] | residual activity [4] [%] | residual activity [5] [%] | inhibition [6] [%] | residual activity [7] [%] | residual activity [8] [%] | residual activity [9] [%] | residual activity [10] [%] | residual activity [11] [%] | residual activity [12] [%] | residual activity [13] [%] | residual activity [14] [%] | residual activity [15] [%] | residual activity [16] [%] | residual activity [17] [%] | residual activity [18] [%] | inhibition [19] [%] |
| --- | --- | --- | --- | --- | --- | --- | --- | --- | --- | --- | --- | --- | --- | --- | --- | --- | --- | --- | --- |
| CCc1ccccc1C(=O)Nc1n[nH]c2c(C)c(F)c(C3C(C#N)=C(C)N(C)C(C)=C3C#N)cc12 [BAY-3827] | 100 | 89 | 83 | 94 | 72 | 5.01 | 80 | 100 | 100 | 56 | 77 | 100 | 100 | 100 | 12 | 100 | 100 | 100 | 32.5 |
| CC1=C(C#N)C(c2ccc3c(c2)c(NC(=O)c2ccccc2C)nn3C)C(C#N)=C(C)N1 [BAY-974] | 88 | 90 | 100 | 95 | 84 | 14.4 | 89 | 100 | 100 | 70 | 91 | 98 | 100 | 100 | 76 | 100 | 100 | 79 | 11.4 |
